Experiments:
[1] = Evaluation of photopolymerization reactivity (Photo-DSC); format: physicochemical; conditions: ink: 950 mg monomer compound + 50 mg IRGACURE 907; 365 nm, 200 mW/cm^2
Procedure: Inks for evaluation were each prepared by mixing 950 mg of the monomer compound presented in a respective column of each Example or Comparative Example in Table 1 with 50 mg of 2-methyl-1-[4-(methylthio)phenyl]-2-morpholinopropan-1-one (IRGACURE 907, manufactured by BASF Japan Ltd.) serving as a polymerization initiator, by means of a magnetic stirrer.
An evaluation test for photopolymerization reactivity was performed on each ink using a measuring device combining DSC-7020 manufactured by Seiko Instruments Inc. with a spot light source (LA-410UV) manufactured by HAYASHI WATCH-WORKS CO., LTD. (referred to as Photo-DSC hereinafter). As for the light for radiation, light having wavelength of 365 nm was used, and the light quantity was set to 200 mW/cm^2.
The calorific value of the polymerization reaction carried out after radiation of light was measured by Photo-DSC. A measurement of the calorific value, which was obtained when light was applied for sufficient time to complete a polymerization reaction of the monomer compound, was performed twice on one sample. The calorific value obtained with the first measurement contains the calorific value from radiation of light as well as the calorific value from the polymerization reaction of the monomer compound. Therefore, the sample which completed the polymerization reaction by the first measurement was subjected to radiation of light under the same condition, and the calorific value of the heat other than the heat generated from the polymerization reaction of the monomer compound was measured. The calorific value of the polymerization reaction of the monomer compound was determined with a difference between the calorific value obtained in the first measurement and the calorific value obtained in the second measurement.
As for the exothermic characteristic thereof, the time required to achieve the maximum calorific value from the time for starting radiation of light was determined as T1 (sec.), which was used as an index for comparing the speed of the photopolymerization reaction.

[2] = Evaluation of photocuring ability (photorheometer); format: physicochemical; conditions: 365 nm; for Photocuring (photorheometer) Elastic modulus: ink: 950 mg monomer + 50 mg IRGACURE 907, 50 mW/cm^2, 10 μm gap, saturated elastic modulus; for Photocuring (photorheometer) Curing energy: light energy applied until elastic modulus saturated; for Photocuring (photorheometer) Curing energy / Photocuring result in words (curing state, elastic modulus): 50 mW/cm^2
Procedure: An evaluation for curing ability from photopolymerization was performed on each ink using a measuring device combining a rheometer VAR200AD, manufactured by REOLOGICA Instruments AB, with an LED light source (LIGHTNINGCURE LC-L1) manufactured by Hamamatsu Photonics K.K. (referred to as Photorheometer, hereinafter).
A measurement was performed in the following manner. A sample was placed in a gap of 10 μm between a pair of corm plates each having a diameter of 20 mm, and light (365 nm, 50 mW/cm^2) emitted from the LED light source was applied to the sample. A change in viscoelsticity caused by curing was measured, and the time when the elastic modulus (Pa) was saturated was determined as completion of curing. Based on the measurement result, the terminal point of the elastic modulus was determined, which was determined as an index of a curing level. Typically, the level of 1×10^4 (Pa) is a level where the sample is completely cured. Moreover, light energy (curing energy) applied until the elastic modulus was saturated was calculated by the product of light radiation intensity (here, which was 50 mW/cm^2) and a period (sec.) for light radiation.

Photopolymerization reactivity (Photo DSC) T1, time required to achieve the maximum calorific value from start of light radiation [1] | Photocuring (photorheometer) Elastic modulus [2] | Photocuring (photorheometer) Curing energy [2] | Photocuring result in words (curing state, elastic modulus) [2] | Photocuring result in words (curing state, elastic modulus) ([2]; listed as Comparative Example 7) | Photocuring result in words (curing state, elastic modulus) ([2]; listed as Comparative Example 4) | SMILES
3.0 s | 1.0*10^5 Pa | 110 mJ/cm^2 | – | – | – | C=C(C)C(=O)OCC(CC)(COC(=O)C(=C)C)COC(=O)N(CC)CC [J-4]
12.0 s | 9.0*10^4 Pa | 840 mJ/cm^2 | – | – | – | C=C(C)C(=O)OCCOC(=O)N1CCCCC1 [E-2]
10.3 s | <1.0 Pa | – | (not cured) | extremely low elastic modulus | – | C=C(C)C(=O)OCCSCC [Ref. Syn. Ex. 2, 2-methacryloxyethylethyl sulfide, reference compound]
4.5 s | 1.3*10^4 Pa | 365 mJ/cm^2 | – | – | – | C=CC(=O)OCCN1CCOCC1 [Commercial product (d), reference compound]
4.8 s | 1.0*10^5 Pa | 210 mJ/cm^2 | – | – | – | C=C(C)C(=O)OCC(COC(=O)N(CC)CC)OC(=O)C(=C)C (centres unmarked) [G-4]
7.0 s | 9.4*10^4 Pa | 430 mJ/cm^2 | – | – | – | C=C(C)C(=O)OC1CCN(C(=O)OCC)CC1 [F-2]
3.2 s | 8.4*10^4 Pa | 150 mJ/cm^2 | – | – | – | C=CC(=O)OC1CCN(C(=O)OCC)CC1 [F-1]
30.3 s | 8.6*10^4 Pa | 2,050 mJ/cm^2 | – | – | – | C=C(C)C(=O)OCCN1CCOCC1 [Commercial product (e), reference compound]
7.0 s | 7.6*10^4 Pa | 380 mJ/cm^2 | – | – | – | C=C(C)C(=O)OCCOC(=O)N1CCOCC1 [D-2]
2.5 s | 1.1*10^3 Pa | – | (not cured) | – | extremely low elastic modulus | C=CC(=O)OCCSCC [Ref. Syn. Ex. 1, 2-acryloxy ethylethyl sulfide, reference compound]

Further lines, the compound ahead of its results:

SMILES | Photopolymerization reactivity (Photo DSC) T1, time required to achieve the maximum calorific value from start of light radiation [1] | Photocuring (photorheometer) Elastic modulus [2] | Photocuring (photorheometer) Curing energy [2] | Photocuring result in words (curing state, elastic modulus) [2] | Photocuring result in words (curing state, elastic modulus) ([2]; listed as Comparative Example 7) | Photocuring result in words (curing state, elastic modulus) ([2]; listed as Comparative Example 4)
C=CC(=O)OCCOC(=O)N1CCOCC1 [D-1] | 3.2 s | 7.9*10^4 Pa | 175 mJ/cm^2 | – | – | –
C=CC(=O)OCC(COC(=O)N(CC)CC)OC(=O)C=C (centres unmarked) [G-3] | 2.4 s | 1.0*10^5 Pa | 140 mJ/cm^2 | – | – | –
C=CC(=O)OCCOC(=O)NCCCC [Commercial product (c), reference compound] | 2.5 s | 3.2*10^4 Pa | 210 mJ/cm^2 | – | – | –
C=C(C)C(=O)OCCOc1ccccc1 [Commercial product (b), reference compound] | 19.3 s | 8.0*10^4 Pa | 2,020 mJ/cm^2 | – | – | –
C=CC(=O)OCC(CC)(COC(=O)C=C)COC(=O)N(CC)CC [J-3] | 2.4 s | 1.0*10^5 Pa | 100 mJ/cm^2 | – | – | –
C=CC(=O)OCCOC(=O)N(CC)CC [B-1] | 3.2 s | 9.4*10^3 Pa | 520 mJ/cm^2 | – | – | –
C=CC(=O)OCCOc1ccccc1 [Commercial product (a), reference compound] | 2.5 s | 4.8*10^4 Pa | 200 mJ/cm^2 | – | – | –
C=C(C)C(=O)OCCOC(=O)N(CC)CC [B-2] | 10.9 s | 8.0*10^4 Pa | 1,950 mJ/cm^2 | – | – | –
C=CC(=O)OCCOC(=O)N1CCCCC1 [E-1] | 4.5 s | 5.0*10^4 Pa | 380 mJ/cm^2 | – | – | –
